Activity calls are given as the source filed them. The calls are words filed in the database; no cut-off is given here.
What was measured:
[1] = target: Prostacyclin receptor (Homo sapiens, UniProt P43119); assay: Agonist activity at human recombinant prostacyclin receptor expressed in CHO-K1 cells assessed as induction of cAMP accumulation incubated for 1 hr by HTRF assay; format: functional, cell-based
[2] = system: Platelet; assay: Inhibition of ADP-induced platelet aggregation in human platelet rich plasma pre-incubated for 1 min before ADP addition and measured 3 mins post ADP addition by aggregometry; format: functional
[3] = system: Rattus norvegicus; assay: Inhibition of right ventricle hypertrophic response to monocrotaline-induced pulmonary arterial hypertension assessed as ratio of right ventricular weight to left ventricle plus septum in Wistar rat at 30 mg/kg administered through oral gavage twice daily for 21 consecutive days starting 24 hrs after monocrotaline challenge; format: functional, organism-based
[4] = system: Rattus norvegicus; assay: Cmax in Sprague-Dawley rat assessed as 2-(((1r,4r)-4-(((4-Chlorophenyl)(phenyl)carbamoy-loxy)methyl)cyclohexyl)methoxy)acetic acid level at 1.25 mg/kg, po after 2.67 hrs by LC/MS/MS method; format: ADME, organism-based; parameters: dose 1.25 mg/kg, route oral; details: in vivo
[5] = Terminal phase half life in Sprague-Dawley rat assessed as 2-(((1r,4r)-4-(((4-Chlorophenyl)(phenyl)carbamoy-loxy)methyl)cyclohexyl)methoxy)acetic acid level at 1.25 mg/kg, po after 0.1 to 21 hrs by LC/MS/MS method; format: ADME, organism-based; details: in vivo
[6] = Drug level in bile-duct cannulated male Sprague-Dawley rat treated with sodium 2-(((1r,4r)-4-(((4- Chlorophenyl)(phenyl)carbamoyloxy)methyl)cyclo-hexyl)methoxy)acetate assessed as compound formation in urine at 2 mg/kg, iv; format: ADME, organism-based; details: in vivo
[7] = Drug level in bile-duct cannulated male Sprague-Dawley rat treated with sodium 2-(((1r,4r)-4-(((4- Chlorophenyl)(phenyl)carbamoyloxy)methyl)cyclo- hexyl)methoxy)acetate assessed as compound formation at 2 mg/kg, iv; format: ADME, organism-based; details: in vivo
[8] = Terminal phase half life in Sprague-Dawley rat at 1.25 mg/kg, po after 0.1 to 21 hrs by LC/MS/MS method; format: ADME, organism-based; details: in vivo, read-out: beta t1/2 (converted)
[9] = system: Rattus norvegicus; assay: AUC(last) in Sprague-Dawley rat assessed as 2-(((1r,4r)-4-(((4-Chlorophenyl)(phenyl)carbamoy-loxy)methyl)cyclohexyl)methoxy)acetic acid level at 1.25 mg/kg, po after 0.1 to 21 hrs by LC/MS/MS method; format: ADME, organism-based; parameters: dose 1.25 mg/kg, route oral, time 0 - last; details: in vivo
[10] = system: Rattus norvegicus; assay: Tmax in Sprague-Dawley rat assessed as 2-(((1r,4r)-4-(((4-Chlorophenyl)(phenyl)carbamoy-loxy)methyl)cyclohexyl)methoxy)acetic acid level at 1.25 mg/kg, po by LC/MS/MS method; format: ADME, organism-based; details: in vivo
[11] = system: Rattus norvegicus; assay: Tmax in Sprague-Dawley rat assessed as 2-(((1r,4r)-4-(((4-Chlorophenyl)(phenyl)carbamoy-loxy)methyl)cyclohexyl)methoxy)acetic acid level at 10 mg/kg, po by LC/MS/MS method; format: ADME, organism-based; details: in vivo
[12] = Drug level in bile-duct cannulated male Sprague-Dawley rat treated with sodium 2-(((1r,4r)-4-(((4- Chlorophenyl)(phenyl)carbamoyloxy)methyl)cyclo- hexyl)methoxy)acetate assessed as compound formation in bile at 2 mg/kg, iv; format: ADME, organism-based; details: in vivo
[13] = Solubility of the compound in Gelucire 44/14; format: physicochemical
[14] = Solubility of the compound in Cremophor RH40; format: physicochemical
[15] = Solubility of the compound in Imwitor 742; format: physicochemical
[16] = Solubility of the compound in Lauroglycol 90; format: physicochemical
[17] = Solubility of the compound in PEG400; format: physicochemical
[18] = Solubility of the compound in Safflower oil; format: physicochemical
[19] = Solubility of the compound in PEG6000; format: physicochemical
[20] = Solubility of the compound in Gelucire 50/13; format: physicochemical
[21] = Solubility of the compound in TPGS 1000; format: physicochemical
[22] = Solubility of the compound in Labrasol; format: physicochemical
[23] = Solubility of the compound in corn oil; format: physicochemical

Prostacyclin receptor, sequence (P43119 whole entry): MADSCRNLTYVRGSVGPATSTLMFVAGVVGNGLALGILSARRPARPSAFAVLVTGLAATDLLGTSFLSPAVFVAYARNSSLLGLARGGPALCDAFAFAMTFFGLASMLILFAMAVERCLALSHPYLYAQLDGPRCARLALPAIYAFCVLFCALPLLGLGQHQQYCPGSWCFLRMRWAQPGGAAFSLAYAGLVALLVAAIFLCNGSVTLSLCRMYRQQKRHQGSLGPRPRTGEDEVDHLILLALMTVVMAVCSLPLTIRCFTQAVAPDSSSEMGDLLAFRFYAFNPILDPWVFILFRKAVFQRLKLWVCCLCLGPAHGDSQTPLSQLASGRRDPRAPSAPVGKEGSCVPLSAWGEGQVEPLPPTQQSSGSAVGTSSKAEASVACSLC

SMILES	EC50 [1]	IC50 [2]	further results
CCOc1ccc(N(C(=O)OC[C@H]2CC[C@H](COCC(=O)O)CC2)c2ccc(F)cc2)cc1	2.7 to 2650 nM	10.5 to 1590 nM	–
Cc1cc(C)cc(N(C(=O)OC[C@H]2CC[C@H](COCC(=O)O)CC2)c2cccc(F)c2)c1	2.7 to 2650 nM	10.5 to 1590 nM	–
O=C(O)COC[C@H]1CC[C@H](COC(=O)N(c2ccccc2)c2cnccn2)CC1	2.7 to 2650 nM	10.5 to 1590 nM	–
Cc1cccc(N(C(=O)OC[C@H]2CC[C@H](COCC(=O)O)CC2)c2cccc(F)c2)c1	2.7 to 2650 nM	10.5 to 1590 nM	–
O=C(O)COC[C@H]1CC[C@H](CNC(=O)N(c2ccccc2)c2cccc(Cl)c2F)CC1	2.7 to 2650 nM	10.5 to 1590 nM	–
O=C(O)COC[C@H]1CC[C@H](COC(=O)N(c2ccc(F)cc2)c2cccc(Cl)c2)CC1	2.7 to 2650 nM	10.5 to 1590 nM	–
COc1cccc(N(C(=O)OC[C@H]2CC[C@H](COCC(=O)O)CC2)c2ccccc2)c1	2.7 to 2650 nM	10.5 to 1590 nM	–
COc1cccc(N(C(=O)NC[C@H]2CC[C@H](COCC(=O)O)CC2)c2ccccc2)c1	2.7 to 2650 nM	10.5 to 1590 nM	–
O=C(O)COC[C@H]1CC[C@H](COC(=O)N(c2ccccc2)c2ccccc2)CC1	2.7 to 2650 nM	10.5 to 1590 nM	–
O=C(O)COC[C@H]1CC[C@H](COC(=O)N(c2ccc(F)cc2)c2cccc(F)c2)CC1	2.7 to 2650 nM	10.5 to 1590 nM	–
O=C(O)COC[C@H]1CC[C@H](COC(=O)N(c2ccccc2)c2cccc(F)c2)CC1	–	10.5 to 1590 nM	Activity [3]: Active
O=C(O)COC[C@H]1CC[C@H](CNC(=O)N(c2ccccc2)c2cc(F)cc(F)c2)CC1	2.7 to 2650 nM	10.5 to 1590 nM	–
O=C(O)COC[C@H]1CC[C@H](COC(=O)N(c2cccc(F)c2)c2ccc(Cl)c(F)c2)CC1	2.7 to 2650 nM	10.5 to 1590 nM	–
O=C(COC[C@H]1CC[C@H](COC(=O)N(c2ccccc2)c2ccc(Cl)cc2)CC1)NCCS(=O)(=O)O	–	10.5 to 1590 nM	Cmax [4]: 214 ng/mL; beta t1/2 [5]: 3.24 h; Drug metabolism [6]: Metabolite_Notdetected; Drug metabolism [7]: Metabolite_Detected; half-life [8]: 3.51 h; AUClast [9]: 935 ng·h/mL; Tmax [10]: 2.67 h; Tmax [11]: 1.5 h; Drug metabolism [12]: Metabolite_Detected
O=C([O-])COC[C@H]1CC[C@H](COC(=O)N(c2ccccc2)c2ccc(Cl)cc2)CC1.[Na+]	–	–	solubility [13]: 1610 µg/mL; solubility [14]: 7820 µg/mL; solubility [15]: 16200 µg/mL; solubility [16]: 260 µg/mL; solubility [17]: 4850 µg/mL; solubility [18]: < 100 µg/mL; solubility [19]: < 10000 µg/mL; solubility [20]: < 10000 µg/mL; solubility [21]: 2550 µg/mL; solubility [22]: 12980 µg/mL; solubility [23]: < 100 µg/mL
O=C(O)COC[C@H]1CC[C@H](COC(=O)N(c2ccccc2)c2cccc(F)c2F)CC1	2.7 to 2650 nM	10.5 to 1590 nM	–
O=C(O)COC[C@H]1CC[C@H](COC(=O)N(c2ccccc2)c2ccc(Cl)c(F)c2)CC1	2.7 to 2650 nM	10.5 to 1590 nM	–
O=C(O)COC[C@H]1CC[C@H](COC(=O)N(c2cccnc2)c2cccc(F)c2)CC1	2.7 to 2650 nM	10.5 to 1590 nM	–
Cc1cccc(N(C(=O)NC[C@H]2CC[C@H](COCC(=O)O)CC2)c2ccccc2)c1	2.7 to 2650 nM	10.5 to 1590 nM	–
Cc1cncc(N(C(=O)OC[C@H]2CC[C@H](COCC(=O)O)CC2)c2ccccc2)c1	2.7 to 2650 nM	10.5 to 1590 nM	–
CN(C[C@H]1CC[C@H](COCC(=O)O)CC1)C(=O)N(c1ccccc1)c1ccccc1	2.7 to 2650 nM	10.5 to 1590 nM	–
O=C(O)COC[C@H]1CC[C@H](COC(=O)N(c2ccc(F)cc2)c2cccnc2)CC1	2.7 to 2650 nM	10.5 to 1590 nM	–

— ChEMBL document CHEMBL3880437, “Modulators of the prostacyclin (PGI2) receptor useful for the treatment of disorders related thereto” (2014)
